# According to paper PMC5491903, “The Selective Phosphoinoside-3-Kinase p110δ Inhibitor IPI-3063 Potently Suppresses B Cell Survival, Proliferation, and Differentiation” (Frontiers in Immunology, 2017):
# Experiments:
# mouse B cells = experiment: mouse B cell proliferation (CFSE); format: cell-based; conditions: αIgM + IL-4, 72 h
# Experimental: Next, we evaluated the effects of PI3K inhibitors on B cell proliferation. We stimulated CFSE-stained cells with αIgM + IL-4 or with LPS for 72 h, or with αCD40 + IL-4 or LPS + IL-4 for 96 h. Cells were treated with vehicle or GDC-0941, IPI-3063, IPI-443, or AS-252424 at various concentrations. […] IPI-443 caused a dose-dependent decrease in proliferation, whereas AS-252424 had no effect. […] In B cells stimulated with LPS + IL-4, the inhibitors had similar trends, but with greater variability (Figure 3D). […] Overall, these experiments establish that the selective p110δ inhibitor IPI-3063 is a very potent inhibitor of B cell survival and proliferation in vitro. In addition, selective p110γ inhibition alone had no effect on B cell survival or proliferation.
# Total splenocytes (A,B) or purified B cells (C–E) were pretreated with inhibitors for 30 min, then stimulated with (A,B) αIgM + IL-4 for 72 h, (C–E) LPS + IL-4 for 96 h, LPS for 72 h, or αCD40 + IL-4 for 96 h. […] The experiments in panel (C) include low concentrations of IPI-3063 (0.01 and 0.1 nM) Total numbers were determined by the number of B220^+7AAD^−CFSE^lo cells. […]
# Before cell surface staining, cells were incubated with TruStain fcX in FACS buffer (0.5% BSA + 0.02% NaN3 in 1× HBSS) to block Fc receptors for 10 min on ice. […] Flow cytometric data were analyzed using FlowJo software (TreeStar). […]
# mouse primary B cells = experiment: mouse B cell antibody class switching to IgG1; format: cell-based; conditions: αCD40 + IL-4, 96 h
# Source text: Studies with p110δ inhibitors have shown that low PI3K signaling in B cells promotes antibody class switch recombination (CSR) and decreases differentiation into plasmablasts that secrete low-affinity IgM ([18], [19]). Activation of mouse primary B cells with αCD40 + IL-4 or LPS + IL-4 both induce IgG1 class switching while treatment with LPS alone induces the plasmablast differentiation fate (Figure 5A). In B cells stimulated with αCD40 + IL-4, IPI-3063 increased the percentage of B220^+ cells switching to IgG1 starting at 1 nM and approached the effect of GDC-0941 (Figure 5B).
# Figure 5 IPI-3063 potently […] mouse B cell antibody switching and inhibits plasmablast differentiation. Purified B cells were pretreated with inhibitors, then stimulated with αCD40 + IL-4 (B) or LPS + IL-4 (C) for 96 h to induce switching to IgG1 or LPS (D) for 72 h to induce plasmablast differentiation. Class switching to IgG1 was measured by the 7AAD^−CFSE^loB220^+IgG1^+ cells [(A), upper panels]. Plasmablast percentages were calculated by % 7AAD^−CFSE^loCD138^+B220^lo population [(A), lower]. Supernatant was harvested (E) for IgM ELISA. […]
# Mouse splenic B cells were purified by negative selection (eBioscience Magnisort Mouse B cell enrichment kit). B-cell purity was >95% as measured by FACS analysis (FACSCalibur and CellQuest software; BD Biosciences) using anti-B220 antibody (BioLegend). […]
SMILES,effect on proliferation (mouse B cells),effect on IgG1 switching (mouse primary B cells),concentration that blocks/decreases proliferation (mouse B cells),concentration that increases percentage of B220+ cells switching to IgG1 (mouse primary B cells)
"O=C1NC(=O)/C(=C/c2ccc(-c3ccc(F)cc3O)o2)S1 [AS-252424, reference compound]",no effect,no effect,–,–
CC(C)n1c([C@H](C)Nc2ncnc(N)c2C#N)cc2cccc(-c3ccc(=O)n(C)c3)c2c1=O [IPI-3063],–,–,1 nM,≥ 1 nM
